Experimental findings from patent US20240270741A1 (Cogent Biosciences, Inc., priority 2023, published 2024) are described below.

FGFR2, sequence (P21802 399-821 limits assumed): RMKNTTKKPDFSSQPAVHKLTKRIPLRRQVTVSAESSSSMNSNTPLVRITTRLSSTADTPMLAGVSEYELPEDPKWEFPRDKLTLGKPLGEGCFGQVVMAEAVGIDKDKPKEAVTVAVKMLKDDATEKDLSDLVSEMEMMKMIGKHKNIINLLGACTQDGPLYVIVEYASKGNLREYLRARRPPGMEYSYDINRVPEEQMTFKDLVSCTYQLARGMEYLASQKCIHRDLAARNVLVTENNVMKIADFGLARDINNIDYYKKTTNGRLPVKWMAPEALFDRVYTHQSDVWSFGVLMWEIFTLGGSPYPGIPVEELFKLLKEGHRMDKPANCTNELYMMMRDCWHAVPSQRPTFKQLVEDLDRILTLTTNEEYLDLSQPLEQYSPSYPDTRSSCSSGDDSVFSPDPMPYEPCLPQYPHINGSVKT

This assay concerns the target FGFR2 (Homo sapiens, UniProt P21802). Briefly: FGFR wild type enzyme assay (HTRF KinEASE-TK), FGFR2. The settings on record: Enz FGFR2 (nM), FGFR2 wild type enzyme assay.
Broadly, the IC50 is the concentration that inhibits the measured activity by half. A low value points to greater potency in that assay. `Cc1c(-c2cc(Sc3ccc(F)cc3C#N)c3c(C#N)cnn3c2)cnn1[C@H]1CC[C@H](OC(=O)CN)CC1` [Example 636, (1r,4r)-4-(4-(3-cyano-4-((2-cyano-4-fluorophenyl)thio)pyrazolo [1,5-a]pyridin-6-yl)-5-methyl-1H-pyrazol-1-yl)cyclohexyl glycinate]: half-maximal inhibition (IC50) required 1 nM. This counts as single-digit nanomolar. `N#Cc1ccccc1Sc1cc(-c2c[nH]nn2)cn2ncc(C#N)c12` [Example 637, 4-((2-cyanophenyl)thio)-6-(1H-1,2,3-triazol-4-yl)pyrazolo[1,5-a]pyridine-3-carbonitrile] gave an IC50 of 12 nM.

Compound `Cn1cc(-c2cc(Sc3ccccc3C#N)c3c(C#N)cnn3c2)ccc1=O` [Example 638, 4-((2-cyanophenyl)thio)-6-(1-methyl-6-oxo-1,6-dihydropyridin-3-yl)pyrazolo[1,5-a]pyridine-3-carbonitrile] showed an IC50 of 18 nM. To `CN(CCO)c1ccc(-c2cc(Sc3ccc(F)cc3C#N)c3c(C#N)cnn3c2)cn1` [Example 639, 4-((2-cyano-4-fluorophenyl)thio)-6-(6-((2-hydroxyethyl)(methyl)ami-no)pyridin-3-yl)pyrazolo[1,5-a]pyridine-3-carbonitrile] belongs 1.5 nM; to `N#Cc1cc(F)ccc1Sc1cc(-c2ccc(NCCO)nc2)cn2ncc(C#N)c12` [Example 640, 4-((2-cyano-4-fluorophenyl)thio)-6-(6-((2-hydroxyethyl)amino)pyridin-3-yl)pyrazolo[1,5-a]pyridine-3-carbonitrile], 2.5 nM. To `[2H]C([2H])([2H])n1cc(-c2cc(Sc3ccccc3C#N)c3c(C#N)cnn3c2)cn1` [Example 641, 4-((2-cyanophenyl)thio)-6-(1-(methyl-d3)-1H-pyrazol-4-yl)pyrazolo[1,5-a]pyridine-3-carbonitrile] belongs 1 nM; to `Cn1cc(-c2cc(Sc3ccccc3C#N)c3c(C#N)cnn3c2)c(N)n1` [Example 642, 6-(3-amino-1-methyl-1H-pyrazol-4-yl)-4-((2-cyanophenyl)thio)pyrazolo [1,5-a]pyridine-3-carbonitrile], 2 nM. Compound `Cc1c(-c2cc(Sc3ccccc3C#N)c3c(C#N)cnn3c2)cnn1[C@@H]1CCNC(=O)C1` [Example 643] displayed a half-inhibitory concentration (IC50) of 3 nM.

`Cc1c(-c2cc(Sc3ccccc3C#N)c3c(C#N)cnn3c2)cnn1[C@H]1CCNC(=O)C1` [Example 644]: 1.6 nM corresponded to half-maximal inhibition (IC50).

`CC(=O)NC1CCN(c2ccc(-c3cc(Sc4ccc(F)cc4C#N)c4c(C#N)cnn4c3)cn2)C1` (stereo not drawn) [Example 645] showed an IC50 of 1.6 nM. In other words, the single-digit nanomolar range. To `N#Cc1cc(F)ccc1Sc1cc(-c2ccc(N3CCOC(CO)C3)nc2)cn2ncc(C#N)c12` (stereo not drawn) [Example 646, 4-((2-cyano-4-fluorophenyl)thio)-6-(6-(2-(hydroxymethyl)morpholi-no)pyridin-3-yl)pyrazolo[1,5-a]pyridine-3-carbonitrile] belongs 1 nM; to `CN1C[C@@H](n2cc(-c3cc(Sc4ccccc4C#N)c4c(C#N)cnn4c3)cn2)CCC1=O` [Example 647, (S)-4-((2-cyanophenyl)thio)-6-(1-(1-methyl-6-oxopiperidin-3-yl)-1H-pyrazol-4-yl)pyrazolo[1,5-a]pyridine-3-carbonitrile], 1 nM.

`N#Cc1ccccc1Sc1cc(-c2ccc(N3CCO[C@@H](CO)C3)nc2)cn2ncc(C#N)c12` [Example 648, (R)-4-((2-cyanophenyl)thio)-6-(6-(2-(hydroxymethyl)morpholi-no)pyridin-3-yl)pyrazolo[1,5-a]pyridine-3-carbonitrile] yielded an IC50 of 0.6 nM. To `N#Cc1ccccc1Sc1cc(-c2ccc(N3CCO[C@H](CO)C3)nc2)cn2ncc(C#N)c12` [Example 649, (S)-4-((2-cyanophenyl)thio)-6-(6-(2-(hydroxymethyl)morpholi-no)pyridin-3-yl)pyrazolo[1,5-a]pryidine-3-carbonitrile] belongs 0.5 nM; to `N#Cc1ccccc1Sc1cc(-c2cnn(CC[C@@H](O)CO)c2)cn2ncc(C#N)c12` [Example 650, (R)-4-((2-cyanophenyl)thio)-6-(1-(3,4-dihydroxybutyl)-1H-pyrazol-4-yl)pyrazolo[1,5-a]pyridine-3-carbonitrile], 1 nM. Regarding `N#Cc1ccccc1Sc1cc(-c2cnn(CC(=O)N3CC[C@H](O)C3)c2)cn2ncc(C#N)c12` [Example 651, (S)-4-((2-cyanophenyl)thio)-6-(1-(2-(3-hydroxypyrrolidin-1-yl)-2-oxoethyl)-1H-pyrazol-4-yl)pyrazolo[1,5-a]pyridine-3-carbonitrile], the IC50 is 1 nM. In the case of `N#Cc1ccccc1Sc1cc(-c2cnn(CC(=O)N3CC[C@@H](O)C3)c2)cn2ncc(C#N)c12` [Example 652, (R)-4-((2-cyanophenyl)thio)-6-(1-(2-(3-hydroxypyrrolidin-1-yl)-2-oxoethyl)-1H-pyrazol-4-yl)pyrazolo[1,5-a]pyridine-3-carbonitrile] it was 1 nM; in that of `CC(C)(O)CCn1cc(-c2cc(Sc3ccccc3C#N)c3c(C#N)cnn3c2)cn1` [Example 653, 4-((2-cyanophenyl)thio)-6-(1-(3-hydroxy-3-methylbutyl)-1H-pyrazol-4-yl)pyrazolo[1,5-a]pyridine-3-carbonitrile], 1 nM. To `N#Cc1cnn2cc(-c3ccc(N4C[C@H](O)[C@@H](O)C4)nc3)cc(Sc3ncccc3F)c12` [Example 654, 6-(6-((3S,4S)-3,4-dihydroxypyrrolidin-1-yl)pyridin-3-yl)-4-((3-fluoropyridin-2-yl)thio)pyrazolo[1,5-a]pyridine-3-carbonitrile] belongs 3 nM; to `N#Cc1cnn2cc(-c3ccc(N4C[C@@H](O)[C@H](O)C4)nc3)cc(Sc3ncccc3F)c12` [Example 655, 6-(6-((3R,4R)-3,4-dihydroxypyrrolidin-1-yl)pyridin-3-yl)-4-((3-fluoropyridin-2-yl)thio)pyrazolo[1,5-a]pyridine-3-carbonitrile], 3 nM; to `CN1CCN(c2ccc(-c3cc(Sc4ncccc4F)c4c(C#N)cnn4c3)cn2)CC1=O` [Example 656, 4-((3-fluoropyridin-2-yl)thio)-6-(6-(4-methyl-3-oxopiperazin-1-yl)pyridin-3-yl)pyrazolo[1,5-a]pyridine-3-carbonitrile], 2 nM. Compound `N#Cc1cc(F)ccc1Sc1cc(-c2ccc(N3CCNC(=O)C3)nc2)cn2ncc(C#N)c12` [Example 657, 4-((2-cyano-4-fluorophenyl)thio)-6-(6-(3-oxopiperazin-1-yl)pyridin-3-yl)pyrazolo[1,5-a]pyridine-3-carbonitrile] showed an IC50 of 3 nM. In the case of `CN=S1(=O)CCC(n2cc(-c3cc(Sc4ccc(F)cc4C#N)c4c(C#N)cnn4c3)cn2)CC1` (stereo not drawn) [Example 658, 4-((2-cyano-4-fluorophenyl)thio)-6-(1-(1-(methylimino)-1-oxidohexahydro-1l6-thiopyran-4-yl)-1H-pyrazol-4-yl)pyrazolo[1,5-a]pyridine-3-carbonitrile] it was 1.5 nM; in that of `CC(=O)N1CCC(N(C)c2ccc(-c3cc(Sc4ccccc4C#N)c4c(C#N)cnn4c3)cn2)CC1` [Example 659, 6-(6-((1-acetylpiperidin-4-yl)(methyl)amino)pyridin-3-yl)-4-((2-cyanophenyl)thio)pyrazolo [1,5-a]pyridine-3-carbonitrile], 0.3 nM; in that of `N#Cc1ccccc1Sc1cc(-c2ccc(N3C[C@@H](O)[C@@H](O)C3)nc2)cn2ncc(C#N)c12` [Example 660, 4-((2-cyanophenyl)thio)-6-(6-((3R,4S)-3,4-dihydroxypyrrolidin-1-yl)pyridin-3-yl)pyrazolo[1,5-a]pyridine-3-carbonitrile], 1 nM. In the case of `N#Cc1cnn2cc(-c3ccc(N4C[C@@H](O)[C@@H](O)C4)nc3)cc(Sc3ncccc3F)c12` [Example 661, 6-(6-((3R,4S)-3,4-dihydroxypyrrolidin-1-yl)pyridin-3-yl)-4-((3-fluoropyridin-2-yl)thio)pyrazolo[1,5-a]pyridine-3-carbonitrile] it was 2 nM; in that of `N#Cc1cnn2cc(-c3ccc(N4CCNC(=O)C4)nc3)cc(Sc3ncccc3F)c12` [Example 662, 4-((3-fluoropyridin-2-yl)thio)-6-(6-(3-oxopiperazin-1-yl)pyridin-3-yl)pyrazolo[1,5-a]pyridine-3-carbonitrile], 2 nM. In the case of `CC(=O)NCCn1cc(-c2cc(Sc3ccccc3C#N)c3c(C#N)cnn3c2)cn1` [Example 663, N-(2-(4-(3-cyano-4-((2-cyanophenyl)thio)pyrazolo [1,5-a]pyridin-6-yl)-1H-pyrazol-1-yl)ethyl)acetamide], inhibition was half-maximal at 2 nM (IC50). To `CC(=O)N1CCN(c2ccc(-c3cc(Sc4ccccc4C#N)c4c(C#N)cnn4c3)cn2)CC1` [Example 664, 6-(6-(4-acetylpiperazin-1-yl)pyridin-3-yl)-4-((2-cyanophenyl)thio)pyrazolo [1,5-a]pyridine-3-carbonitrile] belongs 0.2 nM. In the case of `C[C@@H]1CN(c2ccc(-c3cc(Sc4ccccc4C#N)c4c(C#N)cnn4c3)cn2)C[C@H](C)O1` [Example 665, 4-((2-cyanophenyl)thio)-6-(6-((2S,6R)-2,6-dimethylmorpholino)pyridin-3-yl)pyrazolo[1,5-a]pyridine-3-carbonitrile] it was 1 nM; in that of `Cc1c(-c2cc(Sc3ccc(F)cc3C#N)c3c(C#N)cnn3c2)cnn1C1CCOCC1` [Example 666, 4-((2-cyano-4-fluorophenyl)thio)-6-(5-methyl-1-(tetrahydro-2H-pyran-4-yl)-1H-pyrazol-4-y)pyrazolo[1,5-a]pyridine-3-carbonitrile], 0.6 nM. To `CN1C[C@H](n2cc(-c3cc(Sc4ccccc4C#N)c4c(C#N)cnn4c3)cn2)CCC1=O` [Example 667, (R)-4-((2-cyanophenyl)thio)-6-(1-(1-methyl-6-oxopiperidin-3-yl)-1H-pyrazol-4-yl)pyrazolo[1,5-a]pyridine-3-carbonitrile] belongs 1 nM; to `N#Cc1ccccc1Sc1cc(-c2cnn(CC[C@H](O)CO)c2)cn2ncc(C#N)c12` [Example 668, (S)-4-((2-cyanophenyl)thio)-6-(1-(3,4-dihydroxybutyl)-1H-pyrazol-4-yl)pyrazolo[1,5-a]pyridine-3-carbonitrile], 0.4 nM.
